The results in this text go back to PubChem BioAssay (NCI).

Some test systems named below: HCC-2998 colon; HCT-15 colon; HOP-62 NSCLC; HT29 colon; IGROV1 ovarian; NCI-H23 lung; OVCAR-3 ovarian; UACC-62 melanoma.
What all share (assay): inhibition of tumour cell growth, NCI panel, 48 h

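A five-concentration, 48-hour dose response in 96-well plates underlies each endpoint, interpolated linearly between surrounding concentrations. At the GI50, growth is halved. At the TGI there is no net growth.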

For `COc1ccc(C(C)Nc2cc(OC)c(OC)c(OC)c2)cc1` (stereo not given), the TGI with HCC-2998 colon was more than 72.2 µM; in the assay with HCT-15 colon it was more than 100 µM; with HOP-62 NSCLC, more than 83.2 µM; in the assay with HT29 colon, more than 100 µM; with IGROV1 ovarian, more than 100 µM; with NCI-H23 lung it was more than 39.6 µM. For the same compound, the TGI in the assay on OVCAR-3 ovarian was 6.99 µM; in the assay on UACC-62 melanoma, more than 100 µM.

In the case of `Cc1ccccc1NC(=O)CC(=O)NNCC(=O)Nc1nnc(-c2ccccc2)s1`, the TGI with HCC-2998 colon, in the assay on HCT-15 colon, in the assay on HOP-62 NSCLC, with HT29 colon, in the assay with IGROV1 ovarian and in the assay on NCI-H23 lung was more than 100 µM throughout. For the same compound, the TGI in the assay with OVCAR-3 ovarian and in the assay with UACC-62 melanoma was more than 100 µM in each case.

As for `COC(=O)C1CC(=O)O[C@H]1c1ccc(OC)c(OC)c1` (stereo not given in full), the TGI with HCC-2998 colon, in the assay on HCT-15 colon, with HOP-62 NSCLC, in the assay on HT29 colon, with IGROV1 ovarian and in the assay with NCI-H23 lung was more than 100 µM throughout. The TGI in the assay with OVCAR-3 ovarian and in the assay with UACC-62 melanoma was more than 100 µM throughout.

Regarding `CNS(=O)(=O)NNS(=O)(=O)c1ccc(C)cc1`, the TGI in the assay with HCC-2998 colon, in the assay on HOP-62 NSCLC, in the assay on HT29 colon, in the assay with IGROV1 ovarian, in the assay on NCI-H23 lung and in the assay on OVCAR-3 ovarian was more than 100 µM in each case. In the assay on UACC-62 melanoma, this compound gave a TGI of more than 100 µM.

As for `O=C1Nc2ccc(Cl)cc2/C1=N/c1nc(-c2ccc(Cl)cc2)cs1`, the results for the GI50 in the assay with HT29 colon, in the assay with OVCAR-3 ovarian and in the assay on UACC-62 melanoma were 1.87 µM, 1.3 µM and 1.54 µM, respectively. Moreover, the TGI worked out at 5.34 µM in the assay with HT29 colon, 4.56 µM in the assay on OVCAR-3 ovarian and 4.1 µM with UACC-62 melanoma.

For the compound `COC1=CC(=O)C(O)=C(CC2(C)C(C)CCC3(C)C2CCCC3(C)C)C1=O` (stereo not given), the TGI in the assay on HCC-2998 colon is 17.8 µM; with HCT-15 colon, 14.8 µM; in the assay on HOP-62 NSCLC, 10.7 µM; in the assay on HT29 colon, 23.1 µM; in the assay on IGROV1 ovarian, 28.5 µM; in the assay with NCI-H23 lung it was 8.05 µM. Further, the TGI in the assay with OVCAR-3 ovarian is 26.5 µM; with UACC-62 melanoma it was 5.96 µM.

For `Nc1ccccc1C(=O)/C=C/c1ccccc1O`, the TGI in the assay on HCC-2998 colon, with HOP-62 NSCLC, with HT29 colon, in the assay on IGROV1 ovarian, in the assay on NCI-H23 lung and in the assay with OVCAR-3 ovarian was more than 100 µM in each case. Moreover, the TGI in the assay with UACC-62 melanoma is more than 100 µM.

Consider `COC(=O)N/N=C(\C)c1sc(-c2nc(C)c(/C(C)=N/NC(=O)OC)s2)nc1C`, for which the TGI in the assay with HCC-2998 colon, with HCT-15 colon, in the assay on HOP-62 NSCLC, with HT29 colon, in the assay with IGROV1 ovarian and in the assay with NCI-H23 lung was more than 100 µM throughout. Further, the TGI in the assay with OVCAR-3 ovarian and with UACC-62 melanoma was more than 100 µM in each case.

For the compound `ON1CCc2c([nH]c3ccccc23)C1c1ccc(Cl)cc1` (stereo not given), the TGI in the assay on HCC-2998 colon was 72.3 µM; in the assay with HOP-62 NSCLC, more than 100 µM; in the assay with HT29 colon, 40.1 µM; in the assay with NCI-H23 lung, 86.9 µM; in the assay with OVCAR-3 ovarian, 74.5 µM; in the assay on UACC-62 melanoma, more than 100 µM.

Consider `CC(C)(C)C1CC[C@H]2c3c([nH]c4ccccc34)[C@H]3C(=O)N(c4ccc(F)cc4)C(=O)[C@H]3[C@H]2C1` (stereo not given in full), for which the TGI is 28.4 µM in the assay on HCC-2998 colon; more than 100 µM in the assay with HCT-15 colon; 30.8 µM with HOP-62 NSCLC; 35.3 µM in the assay on IGROV1 ovarian; 33.4 µM in the assay on NCI-H23 lung; 31 µM with OVCAR-3 ovarian. In the assay on UACC-62 melanoma, this compound returned a TGI of 29.6 µM.

Consider `CN(C)c1ccc(/C=C2\CCc3ccccc3C2=O)cc1Br`, for which the TGI with HCC-2998 colon, with HCT-15 colon, with HOP-62 NSCLC, with HT29 colon, with NCI-H23 lung and in the assay with OVCAR-3 ovarian was more than 100 µM throughout. This compound showed a TGI in the assay with UACC-62 melanoma of more than 100 µM.

Regarding `CN(C)CCNC(=O)c1cccc2c1nc(-c1cccnc1)c1ccccc12`, the TGI in the assay on HCC-2998 colon amounted to 20.2 µM; in the assay on HCT-15 colon it was 20.1 µM; with HOP-62 NSCLC it was 22.3 µM; in the assay on HT29 colon, 26.9 µM; with IGROV1 ovarian it was 26.3 µM; in the assay with NCI-H23 lung it was 15.9 µM. Also, the TGI with OVCAR-3 ovarian was determined as 42 µM; in the assay on UACC-62 melanoma it was 15.2 µM.

Regarding `CC(C)CCCC(C)C1CCC2C3CC([N+](=O)[O-])=C4CC(O)CCC4(C)C3CCC12C` (stereo not given), the TGI in the assay on HCC-2998 colon stood at 37.2 µM; in the assay with HCT-15 colon, 33.6 µM; with HOP-62 NSCLC, 42.3 µM; in the assay with HT29 colon, 55.5 µM; in the assay with IGROV1 ovarian, 50.1 µM; in the assay with NCI-H23 lung, 48.6 µM. Moreover, the figures for the TGI with OVCAR-3 ovarian and in the assay with UACC-62 melanoma were 49.4 µM and 40.3 µM, respectively.

As for `O=C1c2ccccc2C2(O)N(c3ccccc3)C(=S)N(c3ccccc3)C12O` (stereo not given), the TGI with HCC-2998 colon, in the assay on HCT-15 colon, with HOP-62 NSCLC, with HT29 colon, in the assay on IGROV1 ovarian and in the assay on NCI-H23 lung was more than 100 µM each time. Besides, the TGI in the assay on OVCAR-3 ovarian and in the assay on UACC-62 melanoma was more than 100 µM each time.

As for `Cc1ccccc1NC(=O)C1C(=O)N(c2ccccc2C)C(=O)/C1=N\NC(N)=O` (stereo not given), the TGI in the assay on HCC-2998 colon, in the assay on HCT-15 colon, with HOP-62 NSCLC, with HT29 colon, with IGROV1 ovarian and with NCI-H23 lung was more than 100 µM each time. Besides, the TGI in the assay with OVCAR-3 ovarian and in the assay on UACC-62 melanoma was more than 100 µM throughout.

For `O=c1c2cc(Br)ccc2nc(CNc2ccccc2)n1-c1ccccc1`, the TGI in the assay on HCC-2998 colon was 33.7 µM; in the assay on HCT-15 colon, more than 47.9 µM; with HOP-62 NSCLC it was more than 60.6 µM; with HT29 colon, 46.2 µM; in the assay on IGROV1 ovarian it was 36.8 µM; in the assay with NCI-H23 lung, 34.1 µM. In addition, the figures for the TGI with OVCAR-3 ovarian and in the assay on UACC-62 melanoma were 48.5 µM and 23.5 µM, respectively.
